Test [1] relates to Leishmania infantum. Kind of test: Antileishmanial activity against Leishmania infantum MHOM/TN/80/IPT1 promastigotes assessed as inhibition of parasite growth after 72 hrs by MTT assay. Type of test: functional, organism-based. The settings on record: MHOM/TN/80/IPT1, 72 h. A general note: Formazan colour is commonly taken as a measure of viable cells.
Test [2] is described as follows: Selectivity index, ratio of IC50 for HMEC1 to IC50 for Leishmania infantum MHOM/TN/80/IPT1.
Test [3] has as its system Leishmania tropica. Kind of test: Antileishmanial activity against Leishmania tropica MHOM/IT/2012/ISS3130 promastigotes assessed as inhibition of parasite growth after 72 hrs by MTT assay. Conditions: MHOM/IT/2012/ISS3130, 72 h. Type of test: functional, organism-based.
A short description of test [4]: Selectivity index, ratio of IC50 for HMEC1 to IC50 for Leishmania tropica MHOM/IT/2012/ISS3130.
For test [5], the system named is Leishmania braziliensis. Kind of test: Antileishmanial activity against Leishmania braziliensis MHOM/IT/2006/ISS2848 promastigotes assessed as inhibition of parasite growth after 72 hrs by MTT assay. Type of test: functional, organism-based. The settings on record: MHOM/IT/2006/ISS2848, 72 h.
The nature of test [6]: Selectivity index, ratio of IC50 for HMEC1 to IC50 for Leishmania braziliensis MHOM/IT/2006/ISS2848.
Test [7] has as its system Plasmodium falciparum. Kind of test: Antiplasmodial activity against chloroquine-sensitive Plasmodium falciparum D10 assessed as inhibition of parasite growth after 72 hrs by parasite lactate dehydrogenase assay. The settings on record: D10, 72 h. Type of test: functional, organism-based.
Test [8] can be described thus: Selectivity index, ratio of IC50 for HMEC1 to IC50 for chloroquine-sensitive Plasmodium falciparum D10.
Test [9] deals with Plasmodium falciparum. Briefly: Antiplasmodial activity against chloroquine-resistant Plasmodium falciparum W2 assessed as inhibition of parasite growth after 72 hrs by parasite lactate dehydrogenase assay. Type of test: functional, organism-based. Conditions: W2, 72 h.
Test [10] relates to Plasmodium falciparum. Kind of test: Resistance index, ratio of IC50 for chloroquine-resistant Plasmodium falciparum W2 to IC50 for chloroquine-sensitive Plasmodium falciparum D10. Type of test: functional.
Test [11] is described as follows: Selectivity index, ratio of IC50 for HMEC1 to IC50 for chloroquine-resistant Plasmodium falciparum W2.
Test [12] in a line: Cytotoxicity against HMEC1 cells after 72 hrs by MTT assay. Conditions: Homo sapiens, HMEC-1, 72 h. Type of test: cell-based.

The IC50 is the point on the concentration scale where inhibition reaches its midpoint. As for `Cl.c1ccc(Nc2cc3nc4ccccc4n(-c4ccccc4)c-3c/c2=N/CCCCCCC23CCCCN2CCCC3)cc1`, the IC50 in test [1] came to 0.23 µM; in test [3] it was 0.12 µM; in [5], 0.14 µM; in [7], 0.17 µM; in [9], 0.21 µM; in [12], 1.24 µM. For the same compound, the Ratio IC50 in [2] worked out at 5.4; in test [4], 10.3; in test [6], 8.9; in test [8], 7.3; in [10] it was 1.2; in test [11], 5.9.

Consider `Cl.c1ccc(Nc2cc3nc4ccccc4n(-c4ccccc4)c-3c/c2=N/CCCCC23CCCCN2CCCC3)cc1`, for which the IC50 is 0.37 µM in test [1]; 0.22 µM in [3]; 0.17 µM in test [5]; 0.21 µM in [7]; 0.27 µM in [9]; 1.23 µM in test [12]. Further, the Ratio IC50 in [2] was 3.3; in [4], 5.6; in test [6], 7.2; in test [8], 5.9; in test [10] it was 1.3; in test [11], 4.5.

For the compound `C[C@@H]1[C@H](O)[C@@H](C)/C=C/C=C/C=C/C=C/C=C/C=C/C=C/[C@H](O[C@@H]2O[C@H](C)[C@@H](O)[C@H](N)[C@@H]2O)C[C@@H]2O[C@](O)(C[C@@H](O)C[C@@H](O)[C@H](O)CC[C@@H](O)C[C@@H](O)CC(=O)O[C@H]1C)C[C@H](O)[C@H]2C(=O)O` [AMPHOTERICIN B], the IC50 in test [1] worked out at 0.08 µM; in [3], 0.09 µM; in test [5], 0.09 µM; in test [12], 25.7 µM. Moreover, the Ratio IC50 was determined as 321 in test [2], 286 in test [4] and 286 in test [6].

Values taken from ChEMBL document CHEMBL3351819, “Clofazimine analogs with antileishmanial and antiplasmodial activity” (Bioorg Med Chem, 2015).
